Measurements published in US20210121527A1, “METHODS OF TREATING MINIMAL RESIDUAL CANCER” (ICAHN SCHOOL OF MEDICINE AT MOUNT SINAI, priority 2018, published 2021).

What was measured:
PRKR (EIF2AK2) = target: T1, PRKR (EIF2AK2) (Homo sapiens, UniProt P19525); assay: DiscoveRx scanMAX kinase profiling; assay type: binding; conditions: read-out: Inhibition of PRKR/EIF2AK2 (KINOMEscan)
T1 construct: purchased DiscoverX (San Diego, Calif.) scanMAX
Experimental: TR-FRET kinase assays were performed in the absence or presence of inhibitors in a reaction buffer consisting of 50 mM HEPES, pH 7.5, 10 mMMgCl2, 1.0 mM EGTA, and 0.01% Brij-35, and 100-200 nM GFP-eIF2a substrate. […] Following the addition of test compound, the reaction was initiated by addition of enzyme and incubated at room temperature for 45 minutes. The reaction was stopped by addition of EDTA to a final concentration of 10 mM and Terbium-labelled phospho-eIF2α antibody was added at a final concentration of 2 nM and incubated for 90 minutes. The resulting fluorescence was monitored in an EnVison® Multilabel reader (PerkinElmer, Waltham, Mass.). TR-FRET ratios and the resulting IC50 values were determined from the fitted inhibition curves. Biochemical specificity profiling was performed at Cerep (Redmond, Wash.) and DiscoverX (San Diego, Calif.).

[1] = tested on: MCF10A-HER2, ZR75.1, SKBR3; assay: 3D acini cultures in Matrigel, cleaved caspase-3 and P-histone H3; assay type: cell-based, human; conditions: 2 μM, 10 days
Experimental: Reagents, cell culture, and treatments: EGF was obtained from PeproTech (Rocky Hill, N.J.) and used at 100 ng/ml. Thapsigargin was from Sigma (St. Louis, Mo.) and used at 2 nM. The ZR75.1-H2B-Dendra2 cell line was generated by stable transfection of the H2B-Dendra2 plasmid (Gurskaya et al., “Engineering of a Monomeric Green-to-Red Photoactivatable Fluorescent Protein Induced by Blue Light,” Nat. Biotechnol. 24:461-465 (2006), which is hereby incorporated by reference in its entirety). For 3D cultures, MCF10A-HER2, SKBR3, and ZR75.1-H2B-Dendra2 cells were plated in growth factor-reduced Matrigel (Corning, Corning, N.Y.) and grown as described previously (Avivar-Valderas et al., “Regulation of Autophagy during ECM Detachment is Linked to a Selective Inhibition of mTORC1 by PERK,” Oncogene 32(41):4932-40 (2013), which is hereby incorporated by reference in its entirety). When referring to “low density,” 3,500 cells/8-well were seeded, and for “high density” 20,000 cells/8-well. Treatments with vehicle (DMSO) or LY4 (2 μM) were replaced every 24 hours for 2D and every 48 hours for 3D cultures. […]

[2] = tested on: HER2 in MCF10A-HER2 cells; assay: HER2 signaling Western blot and surface biotinylation/endocytosis assays; assay type: cell-based, human; conditions: 2 μM
Description: Immunoblot analysis: Cells were lysed in RIPA buffer and protein analyzed by immunoblotting as described previously (Ranganathan et al., “Functional Coupling of p38-Induced Up-Regulation of BiP and Activation of RNA-Dependent Protein Kinase-Like Endoplasmic Reticulum Kinase to Drug Resistance of Dormant Carcinoma Cells,” Cancer Res. 66:1702-1711 (2006), which is hereby incorporated by reference in its entirety). Membranes were blotted using the additional following antibodies: P-PERK (T982) (Tenkerian et al., “mTORC2 Balances AKT Activation and eIF2alpha Serine 51 Phosphorylation to Promote Survival Under Stress,” Mol. Cancer Res. 13:1377-1388 (2015), which is hereby incorporated by reference in its entirety), PERK (Santa Cruz, Dallas, Tex.), P-EGFR(Y1148), EGFR, P-AKT(S473), P-S6 (S235/236) (Cell signaling, Danvers, Mass.), GAPDH (Millipore, Darmstadt, Germany), and β-Tubulin (Abcam, Cambridge, Mass.). For induction of ER stress, MCF10A-HER2 cells were plated in low adhesion plates for 24 hours before collection.
Cell surface biotinylation and endocytosis assay: For cell surface biotinylation, Pierce cell surface protein isolation kit was used following manufacturer's instructions with minor changes. Briefly, MCF10A-HER2 cells were serum- and EGF-starved and treated+/−LY4 for 24 hours before being stimulated with +/−EGF (100 ng/ml) for 20′. Then, cells were washed with ice-cold PBS and surface proteins biotinylated for 30 minutes at 4° C. After quenching, cells were harvested and lysed using RIPA buffer. Protein lysates were incubated with NeutrAvidin agarose beads and the bound proteins were released by incubation with SDS-PAGE sample buffer containing DTT (50 mM). For endocytosis assays (Cihil et al., “The Cell-Based L-Glutathione Protection Assays to Study Endocytosis and Recycling of Plasma Membrane Proteins,” J. Vis. Erp. e50867 (2013), which is hereby incorporated by reference in its entirety), cells were treated similarly but before treatment with EGF cell surface proteins were biotinylated. After 20 minute incubation+/−EGF (100 ng/ml) at 37° C. […]

T1 sequence (P19525 whole entry): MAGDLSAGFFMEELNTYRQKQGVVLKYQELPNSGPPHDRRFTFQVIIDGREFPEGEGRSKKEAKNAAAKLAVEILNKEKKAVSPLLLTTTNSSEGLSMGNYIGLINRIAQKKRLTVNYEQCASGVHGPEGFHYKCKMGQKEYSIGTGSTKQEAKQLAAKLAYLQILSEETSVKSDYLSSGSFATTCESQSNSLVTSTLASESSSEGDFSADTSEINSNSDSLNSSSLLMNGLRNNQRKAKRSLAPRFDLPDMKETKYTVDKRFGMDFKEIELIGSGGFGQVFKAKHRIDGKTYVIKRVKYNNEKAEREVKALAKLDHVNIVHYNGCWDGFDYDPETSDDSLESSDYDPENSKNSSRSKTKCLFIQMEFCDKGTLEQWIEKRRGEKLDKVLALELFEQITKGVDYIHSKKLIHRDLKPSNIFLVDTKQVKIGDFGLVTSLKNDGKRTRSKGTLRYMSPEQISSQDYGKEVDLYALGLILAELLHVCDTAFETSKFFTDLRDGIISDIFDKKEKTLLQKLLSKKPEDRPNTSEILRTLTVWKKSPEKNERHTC

Structure (SMILES) | inhibition at 0.2 µM (PRKR (EIF2AK2)) [%] | inhibition at 2 µM (PRKR (EIF2AK2)) [%] | inhibition at 20 µM (PRKR (EIF2AK2)) [%] | apoptosis (cleaved caspase-3) in 3D acini [1] | proliferation in 3D acini (phospho-histone H3) [1] | P-HER2 and total HER2 on the cell surface (surface biotinylation) [2] | endocytosed phospho-HER2 and total HER2 (reversible surface biotinylation) [2] | P-EGFR, P-HER2, P-AKT, P-S6, P-ERK1/2 levels (Western blot) ([2]; starved cells +/- EGF 100 ng/ml, 15 minutes)
Cc1cccc(CC(=O)N2CCc3c2ccc(-c2cn(C)c4ncnc(N)c24)c3F)n1 [GSK2656157, reference compound] | 20 | 45 | 67 |  |  |  |  | 
Cc1cc(NC(=O)[C@H](O)c2cc(F)cc(F)c2)ccc1-c1cnc(N)c(C(=O)NC(C)C)c1 [LY4, 2-amino-5-[4-[[(2R)-2-(3,5-difluorophenyl)-2-hydroxy-acetyl]amino]-2-methyl-phenyl]-N-isopropyl-pyridine-3-carboxamide] | 0 | 0 | 0 | significantly increased the levels of apoptosis (cleaved caspase-3) | a significant change in the levels of proliferation as detected by phospho-histone H3 levels was not observed | decreased the amount of P-HER2 and total HER2 in the cell surface | increasing endocytosed phospho-HER2 and total HER2 | decreased both the basal and EGF-induced levels of P-EGFR and P-HER2
